According to the supplement of paper PMC10307832:

Assays:
Experiment in all cases: relative viability (nuclei count vs DMSO), 5 days (fraction); higher = more cells survive
NCI-H3122 = tested on: NCI-H3122
Summary of the method: (§1)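 Lung cancer cell lines were pin-tool dosed in 1536-well plates on the day after seeding, with either a lone drug or a fixed anchor-drug dose plus five library-drug doses (not always all listed) in √10 steps. Nuclei were counted on 4× images after 5 days. Relative viability is the ratio of treated-well to vehicle-well nuclei counts, with each value a median of duplicate plates.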

COR-L 105 = tested on: COR-L 105
Summary of the method: as §1

ABC-1 = tested on: ABC-1
Summary of the method: as §1

NCI-H2126 = tested on: NCI-H2126
Summary of the method: as §1

NCI-H2085 = tested on: NCI-H2085
Summary of the method: as §1

HOP-62 = tested on: HOP-62
Summary of the method: as §1

EMC-BAC-2 = tested on: EMC-BAC-2
Summary of the method: as §1

NCI-H358 = tested on: NCI-H358
Summary of the method: as §1

EPLC-272H = tested on: EPLC-272H
Summary of the method: as §1

NCI-H1915 = tested on: NCI-H1915
Summary of the method: as §1

NCI-H1755 = tested on: NCI-H1755
Summary of the method: as §1

NCI-H322M = tested on: NCI-H322M
Summary of the method: as §1

HCC-15 = tested on: HCC-15
Summary of the method: as §1

ChaGo-K-1 = tested on: ChaGo-K-1
Summary of the method: as §1

NCI-H1666 = tested on: NCI-H1666
Summary of the method: as §1

NCI-H1975 = tested on: NCI-H1975
Summary of the method: as §1

NCI-H2023 = tested on: NCI-H2023
Summary of the method: as §1

NCI-H441 = tested on: NCI-H441
Summary of the method: as §1

CAL-12T = tested on: CAL-12T
Summary of the method: as §1

LXF-289 = tested on: LXF-289
Summary of the method: as §1

UMC-11 = tested on: UMC-11
Summary of the method: as §1

HCC-78 = tested on: HCC-78
Summary of the method: as §1

Cc1sc2c(c1C)C(c1ccc(Cl)cc1)=N[C@@H](CC(=O)OC(C)(C)C)c1nnc(C)n1-2 [JQ1] + CS(=O)(=O)N1CCN(Cc2cc3nc(-c4cccc5[nH]ncc45)nc(N4CCOCC4)c3s2)CC1 [Pictilisib] (partner 1 µM)
relative viability (NCI-H3122; first compound 0.04 µM): 0.576
relative viability (NCI-H3122; first compound 0.1265 µM): 0.624
relative viability (NCI-H3122; first compound 0.4 µM): 0.675
relative viability (NCI-H3122; first compound 1.265 µM): 0.425
relative viability (NCI-H3122; first compound 4 µM): 0.445
relative viability (COR-L 105; first compound 0.04 µM): 0.374
relative viability (COR-L 105; first compound 0.1265 µM): 0.264
relative viability (COR-L 105; first compound 0.4 µM): 0.312
relative viability (COR-L 105; first compound 1.265 µM): 0.304
relative viability (COR-L 105; first compound 4 µM): 0.327
relative viability (ABC-1; first compound 0.04 µM): 0.699
relative viability (ABC-1; first compound 0.1265 µM): 0.545
relative viability (ABC-1; first compound 0.4 µM): 0.512
relative viability (ABC-1; first compound 1.265 µM): 0.387
relative viability (ABC-1; first compound 4 µM): 0.365
relative viability (NCI-H2126; first compound 0.04 µM): 0.484
relative viability (NCI-H2126; first compound 0.1265 µM): 0.473
relative viability (NCI-H2126; first compound 0.4 µM): 0.435
relative viability (NCI-H2126; first compound 1.265 µM): 0.37
relative viability (NCI-H2126; first compound 4 µM): 0.349
relative viability (NCI-H2085; first compound 0.04 µM): 0.462
relative viability (NCI-H2085; first compound 0.1265 µM): 0.497
relative viability (NCI-H2085; first compound 0.4 µM): 0.441
relative viability (NCI-H2085; first compound 1.265 µM): 0.368
relative viability (NCI-H2085; first compound 4 µM): 0.385
relative viability (HOP-62; first compound 0.04 µM): 0.815
relative viability (HOP-62; first compound 0.1265 µM): 0.56
relative viability (HOP-62; first compound 0.4 µM): 0.249
relative viability (HOP-62; first compound 1.265 µM): 0.0959
relative viability (HOP-62; first compound 4 µM): 0.101
relative viability (EMC-BAC-2; first compound 0.04 µM): 0.551
relative viability (EMC-BAC-2; first compound 0.1265 µM): 0.499
relative viability (EMC-BAC-2; first compound 0.4 µM): 0.565
relative viability (EMC-BAC-2; first compound 1.265 µM): 0.27
relative viability (EMC-BAC-2; first compound 4 µM): 0.26
relative viability (NCI-H358; first compound 0.04 µM): 0.329
relative viability (NCI-H358; first compound 0.1265 µM): 0.431
relative viability (NCI-H358; first compound 0.4 µM): 0.376
relative viability (NCI-H358; first compound 1.265 µM): 0.386
relative viability (NCI-H358; first compound 4 µM): 0.336
relative viability (EPLC-272H; first compound 0.04 µM): 0.298
relative viability (EPLC-272H; first compound 0.1265 µM): 0.326
relative viability (EPLC-272H; first compound 0.4 µM): 0.301
relative viability (EPLC-272H; first compound 1.265 µM): 0.223
relative viability (EPLC-272H; first compound 4 µM): 0.184
relative viability (NCI-H1915; first compound 0.04 µM): 0.89
relative viability (NCI-H1915; first compound 0.1265 µM): 0.872
relative viability (NCI-H1915; first compound 0.4 µM): 0.758
relative viability (NCI-H1915; first compound 1.265 µM): 0.494
relative viability (NCI-H1915; first compound 4 µM): 0.226
relative viability (NCI-H1755; first compound 0.04 µM): 0.404
relative viability (NCI-H1755; first compound 0.1265 µM): 0.419
relative viability (NCI-H1755; first compound 0.4 µM): 0.421
relative viability (NCI-H1755; first compound 1.265 µM): 0.208
relative viability (NCI-H1755; first compound 4 µM): 0.185
relative viability (NCI-H322M; first compound 0.04 µM): 0.478
relative viability (NCI-H322M; first compound 0.1265 µM): 0.559
relative viability (NCI-H322M; first compound 0.4 µM): 0.439
relative viability (NCI-H322M; first compound 1.265 µM): 0.398
relative viability (NCI-H322M; first compound 4 µM): 0.358
relative viability (HCC-15; first compound 0.04 µM): 0.67
relative viability (HCC-15; first compound 0.4 µM): 0.663
relative viability (HCC-15; first compound 1.265 µM): 0.366
relative viability (HCC-15; first compound 4 µM): 0.343
relative viability (ChaGo-K-1; first compound 0.04 µM): 0.752
relative viability (ChaGo-K-1; first compound 0.4 µM): 0.658
relative viability (ChaGo-K-1; first compound 1.265 µM): 0.407
relative viability (ChaGo-K-1; first compound 4 µM): 0.43
relative viability (NCI-H1666; first compound 0.04 µM): 0.314
relative viability (NCI-H1666; first compound 0.1265 µM): 0.526
relative viability (NCI-H1666; first compound 0.4 µM): 0.414
relative viability (NCI-H1666; first compound 1.265 µM): 0.274
relative viability (NCI-H1666; first compound 4 µM): 0.288
relative viability (NCI-H1975; first compound 0.04 µM): 0.298
relative viability (NCI-H1975; first compound 0.1265 µM): 0.246
relative viability (NCI-H1975; first compound 0.4 µM): 0.27
relative viability (NCI-H1975; first compound 1.265 µM): 0.214
relative viability (NCI-H1975; first compound 4 µM): 0.204
relative viability (NCI-H2023; first compound 0.04 µM): 0.234
relative viability (NCI-H2023; first compound 0.1265 µM): 0.268
relative viability (NCI-H2023; first compound 0.4 µM): 0.196
relative viability (NCI-H2023; first compound 1.265 µM): 0.161
relative viability (NCI-H2023; first compound 4 µM): 0.156
relative viability (NCI-H441; first compound 0.04 µM): 0.475
relative viability (NCI-H441; first compound 0.1265 µM): 0.561
relative viability (NCI-H441; first compound 0.4 µM): 0.38
relative viability (NCI-H441; first compound 1.265 µM): 0.234
relative viability (NCI-H441; first compound 4 µM): 0.195
relative viability (CAL-12T; first compound 0.04 µM): 0.414
relative viability (CAL-12T; first compound 0.4 µM): 0.457
relative viability (CAL-12T; first compound 1.265 µM): 0.293
relative viability (CAL-12T; first compound 4 µM): 0.36
relative viability (LXF-289; first compound 0.04 µM): 0.792
relative viability (LXF-289; first compound 0.1265 µM): 0.783
relative viability (LXF-289; first compound 0.4 µM): 0.629
relative viability (LXF-289; first compound 1.265 µM): 0.462
relative viability (LXF-289; first compound 4 µM): 0.409
relative viability (UMC-11; first compound 0.04 µM): 0.724
relative viability (UMC-11; first compound 0.1265 µM): 0.664
relative viability (UMC-11; first compound 0.4 µM): 0.338
relative viability (UMC-11; first compound 1.265 µM): 0.209
relative viability (UMC-11; first compound 4 µM): 0.192
relative viability (HCC-78; first compound 0.04 µM): 0.212
relative viability (HCC-78; first compound 0.1265 µM): 0.313
relative viability (HCC-78; first compound 0.4 µM): 0.185
relative viability (HCC-78; first compound 1.265 µM): 0.214
relative viability (HCC-78; first compound 4 µM): 0.192
